Legend:
Type in all cases: biochemical
Conditions in all cases: substrate MOCAc-Pro-Leu-Gly-Leu-A2Pr(DNP)-Ala-Arg-NH2
MMP-1 = target: T1, MMP-1 (Homo sapiens, UniProt P03956); experiment: Assay for inhibitory activities on MMPs (fluorogenic peptide substrate): MMP-1
T1 construct: purchased Yagai
T1 sequence (P03956 100-469): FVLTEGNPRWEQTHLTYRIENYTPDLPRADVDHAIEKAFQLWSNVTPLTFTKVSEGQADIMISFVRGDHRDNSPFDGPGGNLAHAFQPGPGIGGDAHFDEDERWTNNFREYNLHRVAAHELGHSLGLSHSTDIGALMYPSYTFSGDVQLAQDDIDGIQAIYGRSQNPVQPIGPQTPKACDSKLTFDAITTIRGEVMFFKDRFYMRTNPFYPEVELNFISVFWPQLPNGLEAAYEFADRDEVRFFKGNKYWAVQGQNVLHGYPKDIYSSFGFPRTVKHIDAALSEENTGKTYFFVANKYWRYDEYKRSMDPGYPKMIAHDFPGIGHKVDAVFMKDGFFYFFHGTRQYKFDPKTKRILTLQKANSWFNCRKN
Procedure: MMP-1 was purchased from Yagai.
(§1) The enzymatic activity on MMPs was analyzed by the method described in “C. Graham Knight, Frances Willenbrock and Gillian Murphy: A novel coumarin-labelled peptide for sensitive continuous assays of the matrix metalloproteinases: FEBS LETT., 296, (1992), 263-266”. The substrate: MOCAc-Pro-Leu-Gly-Leu-A2Pr(DNP)-Ala-Arg-NH2 was purchased from Peptide Institute, Inc., Osaka, Japan. The measurement of the inhibitory activities (IC50) was carried out by the following four methods;
(§2) (A) Reaction with substrate, enzyme (MMPs) and inhibitor
(§3) (B) Reaction with substrate and inhibitor, without enzyme
(§4) (C) Reaction with substrate and enzyme (MMPs), without inhibitor
(§5) (D) Reaction with substrate only
(§6) IC50 values were calculated by using the following formula and each fluorescence values of above four methods (A to D).
(§7) % inhibition={1−(A−B)/(C−D)}×100
(§8) IC50 means the concentration required to inhibit 50% of the enzyme activity.

MMP-2 = target: T2, MMP-2 (Homo sapiens, UniProt P08253); experiment: Assay for inhibitory activities on MMPs (fluorogenic peptide substrate): MMP-2
T2 construct: purchased Calbiochem-Novabiochem International, Inc
T2 sequence (P08253 110-660): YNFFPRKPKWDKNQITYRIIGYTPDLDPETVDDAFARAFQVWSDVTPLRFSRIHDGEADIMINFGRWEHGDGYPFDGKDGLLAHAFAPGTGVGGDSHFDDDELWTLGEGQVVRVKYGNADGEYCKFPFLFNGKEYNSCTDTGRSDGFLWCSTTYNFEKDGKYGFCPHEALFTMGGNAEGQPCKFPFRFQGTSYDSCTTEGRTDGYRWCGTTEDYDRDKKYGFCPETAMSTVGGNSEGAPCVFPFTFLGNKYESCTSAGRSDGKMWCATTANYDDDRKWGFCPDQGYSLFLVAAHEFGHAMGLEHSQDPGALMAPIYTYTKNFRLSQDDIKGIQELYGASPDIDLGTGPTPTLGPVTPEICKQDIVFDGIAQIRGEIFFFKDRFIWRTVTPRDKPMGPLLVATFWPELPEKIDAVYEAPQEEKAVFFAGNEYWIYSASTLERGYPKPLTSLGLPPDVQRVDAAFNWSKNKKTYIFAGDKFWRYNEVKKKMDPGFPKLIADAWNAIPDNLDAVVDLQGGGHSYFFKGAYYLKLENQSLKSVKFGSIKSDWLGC
Procedure: MMP-2 was purchased from Calbiochem-Novabiochem International, Inc.
as §1, §2, §3, §4, §5, §6, §7, §8

MMP-12 catalytic domain = target: T3, MMP-12 catalytic domain (Homo sapiens, UniProt P39900); experiment: Assay for inhibitory activities on MMPs (fluorogenic peptide substrate): MMP-12
T3 construct: catalytic domain(^100Phe˜^263Gly); His-tag; enterokinase digestion-site; made in house; host or cells: Escherichia coli
T3 sequence (P39900 100-263): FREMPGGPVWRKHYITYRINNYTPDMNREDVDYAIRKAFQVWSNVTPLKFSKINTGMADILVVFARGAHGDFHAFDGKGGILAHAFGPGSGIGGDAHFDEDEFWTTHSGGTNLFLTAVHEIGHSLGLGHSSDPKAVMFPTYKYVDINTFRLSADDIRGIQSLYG
Procedure: In regard to MMP-12, catalytic domain(^100Phe˜^263Gly) was amplified with RT-PCR from Human Placenta Total RNA. This was cloned in Escherichia coli expression vector pTrc99AHE inserted with His-tag sequence and enterokinase digestion-site, induced and expressed by IPTG (Isopropyl-β-D-thiogalactopyranoside) and expressed in a insoluble fraction. Isolation of MMP-12 from a insoluble fraction was carried out by dissolving in modifier (6M urea) by a usual method and purification with metal chelate chromatography (Ni Chelateing Sepharose). And then removing modifier (6M urea) with dialysis and refolding of the enzyme spontaneously gave activated MMP-12.
as §1, §2, §3, §4, §5, §6, §7, §8

C[C@@H](NS(=O)(=O)c1ccc(C#Cc2ccc3ccccc3c2)s1)C(=O)O [Compound B-6]
IC50 (MMP-1): > 10000 nM
IC50 (MMP-2): 350 nM
IC50 (MMP-12 catalytic domain): 23 nM

From US6897237B2, “MMP-12 inhibitors” (Shionogi & Co. Ltd., priority 2000, dated 2005)
